The values below come from patent EP4778922A1, “BICYCLIC COMPOUND, AND PREPARATION METHOD THEREFOR AND PHARMACEUTICAL USE THEREOF” (Shanghai Jeyou Pharmaceutical Co., Ltd., priority 2023, dated 2025).

Where two headings read alike, the source gives them in different places. A value given as a limit tells only on which side of the number the result lay.

Data set [1] deals with T1, CYP2C9 (Homo sapiens, UniProt P11712).
T1 construct: co-incubated with human liver microsomes; from tissue; host or cells: human liver microsomes
Nature of the data set: CYP inhibition assay in human liver microsomes. Format: in vitro ADME. To be noted: human liver microsomes, NADPH; read-out: CYPs 2C9 (IC50). As to the method:
(§1) Test Example 3: CYP Inhibition Assay
(§2) An in vitro assay system was used to evaluate the effects of the compounds on the activities of several human liver microsomal cytochrome P450 (CYP) isozymes (CYP1A2, CYP2C9, CYP2D6, CYP3A4 (testosterone/midazolam), CYP2C19, and CYP2C8). Specific probe substrates for CYP450 isozymes were co-incubated with human liver microsomes and the compound at various concentrations (0, 0.0300, 0.100, 0.300, 1.00, 3.00, 10.0 µM). The reaction was initiated by adding the coenzyme NADPH. After the reaction was completed, the samples were processed, and the metabolites generated from the probe substrates were detected by liquid chromatography-tandem mass spectrometry (LC-MS/MS). Based on the resulting dose-response curves, the IC50 values of the test compounds for the probe substrate reactions catalyzed by each CYP isozyme were calculated.
Background: Liver microsomes are vesicles of endoplasmic reticulum, rich in cytochrome P450 enzymes.

Data set [2] addresses T2, CYP2C8 (Homo sapiens, UniProt P10632).
T2 construct: co-incubated with human liver microsomes; from tissue; host or cells: human liver microsomes
T2 sequence (P10632 1-490): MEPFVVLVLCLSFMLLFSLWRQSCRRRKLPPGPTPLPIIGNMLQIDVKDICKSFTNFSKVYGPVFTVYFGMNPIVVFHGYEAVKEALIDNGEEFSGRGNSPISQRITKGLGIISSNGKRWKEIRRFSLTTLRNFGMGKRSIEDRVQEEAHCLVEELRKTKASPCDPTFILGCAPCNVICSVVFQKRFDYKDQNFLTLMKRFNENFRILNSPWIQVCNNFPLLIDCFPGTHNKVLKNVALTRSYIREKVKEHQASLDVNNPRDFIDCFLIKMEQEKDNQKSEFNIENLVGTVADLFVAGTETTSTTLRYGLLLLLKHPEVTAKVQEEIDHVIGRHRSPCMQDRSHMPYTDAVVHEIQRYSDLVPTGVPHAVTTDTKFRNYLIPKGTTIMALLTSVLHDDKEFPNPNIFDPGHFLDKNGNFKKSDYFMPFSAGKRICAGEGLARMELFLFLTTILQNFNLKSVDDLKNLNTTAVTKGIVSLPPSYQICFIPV
The data set is described as follows: CYP inhibition assay in human liver microsomes. Format: in vitro ADME. Particulars: human liver microsomes, NADPH; read-out: CYPs 2C8 (IC50). As to the method: as §1, §2

The target in data set [3] is T3, CYP2C19 (Homo sapiens, UniProt P33261).
T3 construct: co-incubated with human liver microsomes; from tissue; host or cells: human liver microsomes
Nature of the data set: CYP inhibition assay in human liver microsomes. Format: in vitro ADME. To be noted: human liver microsomes, NADPH; read-out: CYPs 2C19 (IC50). As to the method: as §1, §2

The target in data set [4] is T4, CYP3A4 (testosterone/midazolam) (Homo sapiens, UniProt P08684).
T4 construct: co-incubated with human liver microsomes; from tissue; host or cells: human liver microsomes
The data set is described as follows: CYP inhibition assay in human liver microsomes. Format: in vitro ADME. The procedure:
as §1, §2

The nature of data set [5]: Mouse pharmacokinetic test. Format: in vivo, ICR mice. To be noted: plasma; for Tmax: read-out: Tmax. The method, boiled down:
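Male naive ICR mice (25–30 g, n=3 per route) received a single intravenous or oral dose, with feeding resumed 4 h post-dose. Blood was centrifuged at 4°C, and plasma was stored at -80°C until analysis.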

Data set [6] has as its system 22RV1 cells. The data set is described as follows: Cell proliferation inhibition assay in 22RV1 cells (CellTiter-Glo, 7 days). To be noted: Homo sapiens, 22Rv1, 168 h. Format: cell-based, human. In short, it runs like this: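 22RV1 cells received compound alone; LNCaP cells were stimulated with 0.2 nM DHT added 1 h after compound. Seeding was 3000 cells/well.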
On the technique in general: In ATP-based viability assays light output follows the ATP content of the culture.

The mark [7] stands for this setting: probe substrate midazolam, read-out: CYPs 3A4 (Midazolam) (IC50).
Setting [8] is: probe substrate testosterone, read-out: CYPs 3A4 (Testosterone) (IC50).

T3 sequence (P33261 whole entry): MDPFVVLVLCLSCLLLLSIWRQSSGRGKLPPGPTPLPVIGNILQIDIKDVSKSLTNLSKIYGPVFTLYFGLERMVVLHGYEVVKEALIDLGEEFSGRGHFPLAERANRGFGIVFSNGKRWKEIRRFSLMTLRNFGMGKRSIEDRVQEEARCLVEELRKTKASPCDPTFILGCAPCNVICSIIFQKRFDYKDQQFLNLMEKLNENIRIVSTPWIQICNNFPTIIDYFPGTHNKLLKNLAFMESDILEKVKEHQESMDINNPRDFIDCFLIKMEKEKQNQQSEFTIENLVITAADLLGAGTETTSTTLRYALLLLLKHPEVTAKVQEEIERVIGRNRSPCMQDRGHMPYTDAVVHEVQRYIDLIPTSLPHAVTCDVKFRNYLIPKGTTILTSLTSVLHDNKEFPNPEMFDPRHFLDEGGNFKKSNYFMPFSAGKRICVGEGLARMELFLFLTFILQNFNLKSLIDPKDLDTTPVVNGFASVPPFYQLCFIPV
T1 sequence (P11712 whole entry): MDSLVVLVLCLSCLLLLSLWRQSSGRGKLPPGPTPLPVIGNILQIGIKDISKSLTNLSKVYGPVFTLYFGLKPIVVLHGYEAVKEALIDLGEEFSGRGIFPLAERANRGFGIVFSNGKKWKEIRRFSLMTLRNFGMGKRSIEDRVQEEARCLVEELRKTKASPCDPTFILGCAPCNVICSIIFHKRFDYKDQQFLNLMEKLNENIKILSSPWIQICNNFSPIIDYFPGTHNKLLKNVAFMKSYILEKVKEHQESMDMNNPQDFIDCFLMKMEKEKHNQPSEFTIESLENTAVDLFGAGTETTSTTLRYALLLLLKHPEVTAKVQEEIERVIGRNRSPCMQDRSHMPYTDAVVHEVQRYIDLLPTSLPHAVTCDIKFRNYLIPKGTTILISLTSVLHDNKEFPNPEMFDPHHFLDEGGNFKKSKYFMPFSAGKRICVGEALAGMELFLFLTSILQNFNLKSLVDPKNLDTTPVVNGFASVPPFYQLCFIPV
T4 sequence (P08684 whole entry): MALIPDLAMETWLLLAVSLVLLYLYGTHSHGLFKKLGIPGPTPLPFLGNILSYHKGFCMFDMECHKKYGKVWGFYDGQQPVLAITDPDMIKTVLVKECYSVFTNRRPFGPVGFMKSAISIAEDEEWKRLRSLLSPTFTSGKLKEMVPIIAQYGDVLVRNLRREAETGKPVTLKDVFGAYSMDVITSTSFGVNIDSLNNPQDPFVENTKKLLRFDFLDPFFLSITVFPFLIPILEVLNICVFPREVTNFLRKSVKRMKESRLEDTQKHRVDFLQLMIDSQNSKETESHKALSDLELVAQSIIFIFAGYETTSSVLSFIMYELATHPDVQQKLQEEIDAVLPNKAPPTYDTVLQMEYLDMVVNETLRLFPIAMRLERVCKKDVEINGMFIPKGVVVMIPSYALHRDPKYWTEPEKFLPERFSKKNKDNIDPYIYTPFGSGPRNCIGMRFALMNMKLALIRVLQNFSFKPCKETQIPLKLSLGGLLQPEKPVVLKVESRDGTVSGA

Take `CC(C)(c1ccc(-c2ccc(OCc3ccnc(N=S4(=O)CCCC4)n3)cc2)cc1)c1cnc2c(cnn2CCCl)c1` [Compound 46]: the IC50 (commonly the concentration that gives 50% inhibition) was 6.7 µM in data set [1]; over 10 µM in data set [2]; over 10 µM in data set [3]; 4.5 µM in data set [4] (setting [7]); over 10 µM in data set [4] (setting [8]); 590 nM in data set [6]. For the same molecule, the AUC(0-inf) – broadly, the area under the concentration-time curve extrapolated to infinity – in data set [5] (po, 30 mg/kg, PO-30mpk) was 220 µg·h/mL. The Cmax (usually the highest concentration seen after dosing) in data set [5] (po, 30 mg/kg, PO-30mpk) was 20700 ng/mL. Moreover, the half-life (commonly how long it takes for the measured level to halve) in data set [5] (po, 30 mg/kg, PO-30mpk) was 215 min. The Tmax (commonly the time at which the peak concentration occurs) in data set [5] (po, 30 mg/kg, PO-30mpk) is 4 h.

In the case of `CC(C)(c1ccc(-c2ccc(OCc3ccnc(N4CC5(CC(P(C)(C)=O)C5)C4)n3)cc2)cc1)c1cc(Cl)c(OCCCl)c(C#N)c1` [Compound 61], the IC50 in data set [1] was over 10 µM; in data set [2], over 10 µM; in data set [3] it was over 10 µM; in data set [4] (setting [7]), over 10 µM; in data set [4] (setting [8]), over 10 µM; in data set [6], 380 nM. Also, the AUC(0-inf) in data set [5] (po, 30 mg/kg, PO-30mpk) stood at 242 µg·h/mL. The highest level in data set [5] (po, 30 mg/kg, PO-30mpk) (Cmax) was 15600 ng/mL. For the same molecule, the half-life in data set [5] (po, 30 mg/kg, PO-30mpk) is 456 min. Also, in data set [5] (po, 30 mg/kg, PO-30mpk), the Tmax amounted to 6 h.

Regarding `CC(C)(c1ccc(-c2ccc(OCc3ccnc(N4CC(S(C)(=O)=O)C4)n3)nc2)cc1)c1cc(Cl)c(OCCCl)c(C#N)c1` [Compound 207], the half-maximal inhibitory concentration (IC50) is over 10 µM in data set [1]; over 10 µM in data set [2]; over 10 µM in data set [3]; over 10 µM in data set [4] (setting [7]); over 10 µM in data set [4] (setting [8]); 340 nM in data set [6]. The molecule further displayed a C0 in data set [5] (0.5 mg/kg, IV-0.5mpk) of 1620 ng/mL. Moreover, the clearance – broadly, a measure of how efficiently the substance is removed, as volume per time – in data set [5] (0.5 mg/kg, IV-0.5mpk) is 1.1 mL/min/kg. In addition, the bioavailability (as a rule, the share of a dose that reaches the circulation, judged against a reference dose that is usually intravenous) in data set [5] (30 mg/kg, PO-30mpk vs IV-0.5mpk) is 97.7%. Also, the AUC(0-inf) in data set [5] (iv, 0.5 mg/kg, IV-0.5mpk) was 7.61 µg·h/mL; in data set [5] (po, 30 mg/kg, PO-30mpk) it was 446 µg·h/mL. Further, the half-life is 966 min in data set [5] (iv, 0.5 mg/kg, IV-0.5mpk) and 588 min in data set [5] (po, 30 mg/kg, PO-30mpk). The molecule further registered a Cmax in data set [5] (po, 30 mg/kg, PO-30mpk) of 33900 ng/mL. The Tmax in data set [5] (po, 30 mg/kg, PO-30mpk) came out at 3 h.

For `CC(C)(c1ccc(-c2ccc(OC3CCN(c4ccnc(P(C)(C)=O)n4)CC3)cc2)cc1)c1cc(Cl)c(OCCCl)c(C#N)c1` [Compound 48], the IC50 in data set [1] is 5.4 µM; in data set [2], 1.7 µM; in data set [3], over 10 µM; in data set [4] (setting [7]), over 10 µM; in data set [4] (setting [8]), over 10 µM; in data set [6], 440 nM. This molecule came in with a total exposure AUC(0-inf) in data set [5] (po, 30 mg/kg, PO-30mpk) of 358 µg·h/mL. This molecule also returned a Cmax in data set [5] (po, 30 mg/kg, PO-30mpk) of 13000 ng/mL. Also, the half-life in data set [5] (po, 30 mg/kg, PO-30mpk) was 1080 min. The Tmax in data set [5] (po, 30 mg/kg, PO-30mpk) was determined as 4 h.

Regarding `CC(C)(c1ccc(-c2ccc(OCc3ccnc(N4CC5(CCS(=O)(=O)CC5)C4)n3)cc2)cc1)c1cc(Cl)c(OCCCl)c(C#N)c1` [Compound 177], the IC50 in data set [1] is over 10 µM; in data set [2] it was over 10 µM; in data set [3], over 10 µM; in data set [4] (setting [7]), over 10 µM; in data set [4] (setting [8]) it was over 10 µM; in data set [6] it was 210 nM. Moreover, the AUC(0-inf) in data set [5] (po, 30 mg/kg, PO-30mpk) amounted to 558 µg·h/mL. Besides, in data set [5] (po, 30 mg/kg, PO-30mpk), the peak level (Cmax) was 17800 ng/mL. Further, the half-life in data set [5] (po, 30 mg/kg, PO-30mpk) was 2020 min. Also, in data set [5] (po, 30 mg/kg, PO-30mpk), the Tmax was 6 h.

Turning to `CC(C)(c1ccc(-c2ccc(OCc3ccnc(N4CC5(CCS5(=O)=O)C4)n3)cc2)cc1)c1cc(Cl)c(OCCCl)c(C#N)c1` [Compound 176], the IC50 in data set [1] is over 10 µM; in data set [2], over 10 µM; in data set [3], over 10 µM; in data set [4] (setting [7]) it was over 10 µM; in data set [4] (setting [8]) it was over 10 µM; in data set [6], 390 nM. In addition, the AUC(0-inf) in data set [5] (po, 30 mg/kg, PO-30mpk) was 407 µg·h/mL. This molecule gave a Cmax in data set [5] (po, 30 mg/kg, PO-30mpk) of 21300 ng/mL. This molecule gave a half-life in data set [5] (po, 30 mg/kg, PO-30mpk) of 1180 min. Moreover, the Tmax in data set [5] (po, 30 mg/kg, PO-30mpk) is 4 h.

On to `CC(C)(c1ccc(-c2ccc(OCc3ccnc(N4CC5(CCS(=N)(=O)CC5)C4)n3)cc2)cc1)c1cc(Cl)c(OCCCl)c(C#N)c1` [Compound 289], for which the IC50 is over 10 µM in data set [1]; over 10 µM in data set [2]; over 10 µM in data set [3]; over 10 µM in data set [4] (setting [7]); over 10 µM in data set [4] (setting [8]); 830 nM in data set [6]. For the same molecule, the area under the curve AUC(0-inf) in data set [5] (po, 30 mg/kg, PO-30mpk) is 240 µg·h/mL. In data set [5] (po, 30 mg/kg, PO-30mpk), this molecule came in with a Cmax of 10000 ng/mL. In addition, the half-life in data set [5] (po, 30 mg/kg, PO-30mpk) was 642 min. Further, the Tmax in data set [5] (po, 30 mg/kg, PO-30mpk) stood at 4 h.
